Legend:
Experiment in all cases: relative viability (nuclei count vs DMSO), 5 days (fraction); higher = more cells survive
[1] = compound: C1CN(CCN1)C2=CC=C(C=C2)C3=CN4C(=C(C=N4)C5=CC=NC6=CC=CC=C56)N=C3 [DM3189] + Nc1ncn([C@H]2C[C@H](O)[C@@H](CO)O2)c(=O)n1 [Decitabine] (partner 2 µM)
Outline: (§1)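 Lung cancer cell lines in 1536-well plates got either a single drug or a fixed anchor-drug dose together with five library-drug doses (not always all listed) in √10 steps, by pin tool, on the day after seeding. Nuclei were counted after 5 days, and relative viability is the treated-to-vehicle ratio of nuclei counts. Values are medians of duplicate plates.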

[2] = compound: C1CN(CCN1)C2=CC=C(C=C2)C3=CN4C(=C(C=N4)C5=CC=NC6=CC=CC=C56)N=C3 [DM3189] + Cc1cc(Nc2cc(N3CCN(C)CC3)nc(Sc3ccc(NC(=O)C4CC4)cc3)n2)n[nH]1 [Tozasertib] (partner 0.1 µM)
Outline: as §1

[3] = compound: C1CN(CCN1)C2=CC=C(C=C2)C3=CN4C(=C(C=N4)C5=CC=NC6=CC=CC=C56)N=C3 [DM3189] + COc1cc2c(Oc3ccc(NC(=O)C4(C(=O)Nc5ccc(F)cc5)CC4)cc3F)ccnc2cc1OCCCN1CCOCC1 [Foretinib] (partner 0.25 µM)
Outline: as §1

[4] = compound: C1CN(CCN1)C2=CC=C(C=C2)C3=CN4C(=C(C=N4)C5=CC=NC6=CC=CC=C56)N=C3 [DM3189] + CC1(C)CCC(c2ccc(Cl)cc2)=C(CN2CCN(c3ccc(C(=O)NS(=O)(=O)c4ccc(N[C@H](CCN5CCOCC5)CSc5ccccc5)c(S(=O)(=O)C(F)(F)F)c4)cc3)CC2)C1 [Navitoclax] (partner 0.5 µM)
Outline: as §1

[5] = compound: C1CN(CCN1)C2=CC=C(C=C2)C3=CN4C(=C(C=N4)C5=CC=NC6=CC=CC=C56)N=C3 [DM3189] + Cc1nc(Nc2ncc(C(=O)Nc3c(C)cccc3Cl)s2)cc(N2CCN(CCO)CC2)n1 [Dasatinib] (partner 0.075 µM)
Outline: as §1

Cell Line: LOU-NH91
- relative viability ([1]; first compound 0.08 µM): 0.854
- relative viability ([1]; first compound 0.253 µM): 0.799
- relative viability ([1]; first compound 0.8 µM): 0.739
- relative viability ([1]; first compound 2.53 µM): 0.863
- relative viability ([2]; first compound 0.08 µM): 0.7
- relative viability ([2]; first compound 0.253 µM): 0.696
- relative viability ([2]; first compound 0.8 µM): 0.659
- relative viability ([2]; first compound 2.53 µM): 0.637
- relative viability ([3]; first compound 0.08 µM): 1.08
- relative viability ([3]; first compound 0.253 µM): 0.942
- relative viability ([3]; first compound 0.8 µM): 0.891
- relative viability ([3]; first compound 2.53 µM): 0.96
- relative viability ([4]; first compound 0.08 µM): 0.762
- relative viability ([4]; first compound 0.253 µM): 0.688
- relative viability ([4]; first compound 0.8 µM): 0.523
- relative viability ([4]; first compound 2.53 µM): 0.607
- relative viability ([5]; first compound 0.08 µM): 0.688
- relative viability ([5]; first compound 0.253 µM): 0.541
- relative viability ([5]; first compound 0.8 µM): 0.51
- relative viability ([5]; first compound 2.53 µM): 0.475

Cell Line: NCI-H358
- relative viability ([1]; first compound 0.08 µM): 0.226
- relative viability ([1]; first compound 0.253 µM): 0.191
- relative viability ([1]; first compound 0.8 µM): 0.217
- relative viability ([1]; first compound 2.53 µM): 0.194
- relative viability ([2]; first compound 0.08 µM): 0.12
- relative viability ([2]; first compound 0.253 µM): 0.0936
- relative viability ([2]; first compound 0.8 µM): 0.102
- relative viability ([2]; first compound 2.53 µM): 0.11
- relative viability ([3]; first compound 0.08 µM): 0.733
- relative viability ([3]; first compound 0.253 µM): 0.607
- relative viability ([3]; first compound 0.8 µM): 0.714
- relative viability ([3]; first compound 2.53 µM): 0.61
- relative viability ([5]; first compound 0.08 µM): 0.177
- relative viability ([5]; first compound 0.253 µM): 0.166
- relative viability ([5]; first compound 0.8 µM): 0.17
- relative viability ([5]; first compound 2.53 µM): 0.163

Cell Line: NCI-H522
- relative viability ([1]; first compound 0.08 µM): 0.592
- relative viability ([1]; first compound 0.253 µM): 0.652
- relative viability ([1]; first compound 0.8 µM): 0.667
- relative viability ([1]; first compound 2.53 µM): 0.636
- relative viability ([2]; first compound 0.08 µM): 0.602
- relative viability ([2]; first compound 0.253 µM): 0.582
- relative viability ([2]; first compound 0.8 µM): 0.552
- relative viability ([2]; first compound 2.53 µM): 0.494
- relative viability ([5]; first compound 0.08 µM): 1.04
- relative viability ([5]; first compound 0.253 µM): 0.929
- relative viability ([5]; first compound 0.8 µM): 0.838
- relative viability ([5]; first compound 2.53 µM): 0.8

Cell Line: NCI-H650
- relative viability ([1]; first compound 0.08 µM): 0.288
- relative viability ([1]; first compound 0.253 µM): 0.313
- relative viability ([1]; first compound 0.8 µM): 0.242
- relative viability ([1]; first compound 2.53 µM): 0.292
- relative viability ([2]; first compound 0.08 µM): 0.713
- relative viability ([2]; first compound 0.253 µM): 0.667
- relative viability ([2]; first compound 0.8 µM): 0.623
- relative viability ([2]; first compound 2.53 µM): 0.696
- relative viability ([3]; first compound 0.08 µM): 1.04
- relative viability ([3]; first compound 0.253 µM): 0.964
- relative viability ([3]; first compound 0.8 µM): 0.912
- relative viability ([3]; first compound 2.53 µM): 1.02
- relative viability ([5]; first compound 0.08 µM): 0.558
- relative viability ([5]; first compound 0.253 µM): 0.509
- relative viability ([5]; first compound 0.8 µM): 0.5
- relative viability ([5]; first compound 2.53 µM): 0.408

Cell Line: NCI-H661
- relative viability ([1]; first compound 0.08 µM): 0.673
- relative viability ([1]; first compound 0.253 µM): 0.519
- relative viability ([1]; first compound 0.8 µM): 0.576
- relative viability ([1]; first compound 2.53 µM): 0.673
- relative viability ([2]; first compound 0.08 µM): 0.36
- relative viability ([2]; first compound 0.253 µM): 0.346
- relative viability ([2]; first compound 0.8 µM): 0.351
- relative viability ([2]; first compound 2.53 µM): 0.336
- relative viability ([3]; first compound 0.08 µM): 1.14
- relative viability ([3]; first compound 0.253 µM): 0.954
- relative viability ([3]; first compound 0.8 µM): 1.02
- relative viability ([3]; first compound 2.53 µM): 1.19
- relative viability ([5]; first compound 0.08 µM): 1.05
- relative viability ([5]; first compound 0.253 µM): 0.832
- relative viability ([5]; first compound 0.8 µM): 0.787
- relative viability ([5]; first compound 2.53 µM): 0.862

Cell Line: NCI-H1563
- relative viability ([3]; first compound 0.08 µM): 0.953
- relative viability ([3]; first compound 0.253 µM): 0.817
- relative viability ([3]; first compound 0.8 µM): 0.98
- relative viability ([3]; first compound 2.53 µM): 0.987
- relative viability ([5]; first compound 0.08 µM): 0.441
- relative viability ([5]; first compound 0.253 µM): 0.381
- relative viability ([5]; first compound 0.8 µM): 0.459
- relative viability ([5]; first compound 2.53 µM): 0.483

Cell Line: NCI-H1703
- relative viability ([3]; first compound 0.08 µM): 0.37
- relative viability ([3]; first compound 0.253 µM): 0.443
- relative viability ([3]; first compound 0.8 µM): 0.395
- relative viability ([3]; first compound 2.53 µM): 0.263
- relative viability ([4]; first compound 0.08 µM): 1.08
- relative viability ([4]; first compound 0.253 µM): 1.05
- relative viability ([4]; first compound 0.8 µM): 1
- relative viability ([4]; first compound 2.53 µM): 0.709

Cell Line: NCI-H1792
- relative viability ([1]; first compound 0.08 µM): 0.529
- relative viability ([1]; first compound 0.253 µM): 0.519
- relative viability ([1]; first compound 0.8 µM): 0.397
- relative viability ([1]; first compound 2.53 µM): 0.579
- relative viability ([4]; first compound 0.08 µM): 0.584
- relative viability ([4]; first compound 0.253 µM): 0.601
- relative viability ([4]; first compound 0.8 µM): 0.443
- relative viability ([4]; first compound 2.53 µM): 0.23
- relative viability ([5]; first compound 0.08 µM): 0.547
- relative viability ([5]; first compound 0.253 µM): 0.899
- relative viability ([5]; first compound 0.8 µM): 0.716
- relative viability ([5]; first compound 2.53 µM): 0.927

Cell Line: NCI-H2228
- relative viability ([2]; first compound 0.08 µM): 0.236
- relative viability ([2]; first compound 0.253 µM): 0.207
- relative viability ([2]; first compound 0.8 µM): 0.227
- relative viability ([2]; first compound 2.53 µM): 0.156
- relative viability ([3]; first compound 0.08 µM): 0.802
- relative viability ([3]; first compound 0.253 µM): 0.828
- relative viability ([3]; first compound 0.8 µM): 0.7
- relative viability ([3]; first compound 2.53 µM): 0.517
- relative viability ([4]; first compound 0.08 µM): 0.96
- relative viability ([4]; first compound 0.253 µM): 0.952
- relative viability ([4]; first compound 0.8 µM): 1.1
- relative viability ([4]; first compound 2.53 µM): 1.3
- relative viability ([5]; first compound 0.08 µM): 0.577
- relative viability ([5]; first compound 0.253 µM): 0.41
- relative viability ([5]; first compound 0.8 µM): 0.545
- relative viability ([5]; first compound 2.53 µM): 0.245

Cell Line: NCI-H2342
- relative viability ([1]; first compound 0.08 µM): 0.747
- relative viability ([1]; first compound 0.253 µM): 0.679
- relative viability ([1]; first compound 0.8 µM): 0.718
- relative viability ([1]; first compound 2.53 µM): 0.688
- relative viability ([2]; first compound 0.08 µM): 0.599
- relative viability ([2]; first compound 0.253 µM): 0.526
- relative viability ([2]; first compound 0.8 µM): 0.541
- relative viability ([2]; first compound 2.53 µM): 0.483
- relative viability ([3]; first compound 0.08 µM): 1.08
- relative viability ([3]; first compound 0.253 µM): 0.912
- relative viability ([3]; first compound 0.8 µM): 1.08
- relative viability ([3]; first compound 2.53 µM): 0.965
- relative viability ([5]; first compound 0.08 µM): 0.291
- relative viability ([5]; first compound 0.253 µM): 0.3
- relative viability ([5]; first compound 0.8 µM): 0.299
- relative viability ([5]; first compound 2.53 µM): 0.332

Cell Line: SW 900
- relative viability ([1]; first compound 0.08 µM): 0.467
- relative viability ([1]; first compound 0.8 µM): 0.424
- relative viability ([1]; first compound 2.53 µM): 0.407
- relative viability ([2]; first compound 0.08 µM): 0.604
- relative viability ([2]; first compound 0.253 µM): 0.509
- relative viability ([2]; first compound 0.8 µM): 0.446
- relative viability ([2]; first compound 2.53 µM): 0.437
- relative viability ([3]; first compound 0.08 µM): 0.996
- relative viability ([3]; first compound 0.253 µM): 0.875
- relative viability ([3]; first compound 0.8 µM): 0.794
- relative viability ([3]; first compound 2.53 µM): 0.728
- relative viability ([5]; first compound 0.08 µM): 0.733
- relative viability ([5]; first compound 0.253 µM): 0.373
- relative viability ([5]; first compound 0.8 µM): 0.449
- relative viability ([5]; first compound 2.53 µM): 0.567
